The values that follow come from patent US20230064978A1, “CYCLIC PEPTIDE RECEPTOR LANTHIONINE SYNTHETASE C-LIKE PROTEIN (LANCL) AND USES THEREOF” (LATERAL IP PTY LTD, priority 2019, published 2023).

Assay [1] relates to spinal cord slice model. Description: Spinal cord slice model. The note with it: data not shown.
Assay [2] relates to Dorsal root ganglion (DRG) neurons. Description: Cell-binding fluorescence on cultured DRG neurons, paclitaxel neuropathy model. The class given is cell-based. The note with it: DRG neurons from paclitaxel-treated vs untreated mice; probe 5 μM (FIG. 1). The protocol:
The cell-binding fluorescence protocol can be briefly described as follows. […] Model of chemotherapy-induced peripheral neuropathy was generated using paclitaxel in female C57/B16 mice—[…] Paclitaxel or vehicle (10 ml/kg body weight) injected intravenously (i.v.) on day 1, day 3 and day 5. Mechanical allodynia was confirmed using von Frey (VF) filaments 9 days after starting vehicle or paclitaxel treatment (left and right paws). Each of the ten C57/B16 mice (vehicle control and paclitaxel treated) were euthanized by CO2 inhalation and individually dissected.
L5-L6 DRGs were rapidly dissected and placed in Petri dishes containing dissection medium. Meninges were removed.
Each DRG pool was successively: • incubated in dissociation buffer (0.5 mg/ml Dispase, 2.5 mg/ml collagenase, 6 mg/ml BSA, 10 mM HEPES) for 30 min at 37° C. under gentle agitation at 800 rounds/min; • washed; • triturated in culture medium and filtered on a 40 μm filter; • re-suspended in 1 ml culture medium supplemented with nerve growth factor (NGF) 250 ng/ml.
Dissociated cells from each pool were counted, seeded on Poly-D-Lysin- and Laminin-coated μ slides at the density of 4×10^4 cells/well and incubated at 37° C. 5% CO2. The medium was changed daily for 3 days. […]

The subject of assay [3] is DRG neurons. Description: Confocal microscopy of PAL probe binding in DRG cell cultures, spinal nerve ligation model. It is filed as cell-based, Sprague Dawley rats. An excerpt:
LAT9991-PAL was used in conjunction with confocal microscopy to visualise the location of potential target(s), noting that analgesic agents can have activity at several sites, either on central or peripheral neurons, or on glial or inflammatory cells that are in proximity to neurons. To identify the cell types to which LAT9991-PAL binds, 3-day cell cultures of DRG from neuropathic or control sites were taken from animals with neuropathy due to spinal nerve ligation. Briefly, L5 and L6 spinal nerves of male Sprague Dawley rats were ligated to create a robust and long-lasting mechanical allodynia of the injured hind paw. Presence of neuropathic pain was confirmed 2 weeks post-spinal nerve ligation surgeries (day 14) using von Frey (VF) filaments (up-and-down method) applied on ipsilateral (injured) and contralateral (non-injured) paw). Live DRG cells were dissected out as described previously and incubated with LAT9991-PAL for 1 hour prior to UV irradiation to fix the binding in situ. […] As a specificity control, the binding of LAT9991-PAL to the neuropathic DRG was blocked in the presence of an excess amount of unlabeled LAT9991 peptide.

Entries after “also recorded” stand apart in the source; their conditions may differ. Bridges are numbered along the chain shown (N, C = ends). Where no end group is shown, it is not given here.

As for “LAT9991-PAL: cyclic peptide of SEQ ID NO:12 (LAT9991) conjugated to the PAL (Photo-Activated Labelling) grouping (CRSVEGSCG; disulfide 1-8 (inferred); also: PAL group on N-terminal Cys-Arg part)”, the “Activity on the spinal cord slice model” value in assay [1] is “fully active”. In addition, the “Binding of PAL probe to DRG neurons” value in assay [2] was “can be seen in DRG neurons from mice treated with paclitaxel (neuropathic pain model), but not in control untreated mice; also recorded: only to neurons from treated and neuropathic animals”. Further, the “Subcellular location of the target stained by PAL probe” value in assay [3] (high-powered imaging, neurons from neuropathic animals (FIG. 2)) is “expressed just inside the neuronal cell membrane, and with punctate staining in the cytoplasm”. Besides, the “Localisation of PAL probe in DRG cell cultures” value in assay [3] (neuropathic vs unaffected DRG, 1 hour incubation before UV irradiation) is “localised only in neurons from neuropathic DRG and not from unaffected DRG”.
